Results reported in the kinase profiling compilation of Christmann-Franck et al. (2016).

Columns and labels:
Assay in all cases: radiometric filter-binding kinase assay
MAPK3 (human) = MAPK3 (human) (UniProt P27361)
MAP3K7 TAB1 (human) = MAP3K7 TAB1 (human) (UniProt Q15750+O43318)
NTRK1 (human) = NTRK1 (human) (UniProt P04629)
[1] = system: SGK1 (human), O00141 [S422D]
MAPKAPK3 (human) = MAPKAPK3 (human) (UniProt Q16644)
RPS6KA3 KD1 KD2 (human) = RPS6KA3 KD1 KD2 (human) (UniProt P51812)
STK3 (human) = STK3 (human) (UniProt Q13188)
PLK1 (human) = PLK1 (human) (UniProt P53350)
MAPK8 (human) = MAPK8 (human) (UniProt P45983)
Chain of MAPK8 (human) (P45983 whole entry, looked up): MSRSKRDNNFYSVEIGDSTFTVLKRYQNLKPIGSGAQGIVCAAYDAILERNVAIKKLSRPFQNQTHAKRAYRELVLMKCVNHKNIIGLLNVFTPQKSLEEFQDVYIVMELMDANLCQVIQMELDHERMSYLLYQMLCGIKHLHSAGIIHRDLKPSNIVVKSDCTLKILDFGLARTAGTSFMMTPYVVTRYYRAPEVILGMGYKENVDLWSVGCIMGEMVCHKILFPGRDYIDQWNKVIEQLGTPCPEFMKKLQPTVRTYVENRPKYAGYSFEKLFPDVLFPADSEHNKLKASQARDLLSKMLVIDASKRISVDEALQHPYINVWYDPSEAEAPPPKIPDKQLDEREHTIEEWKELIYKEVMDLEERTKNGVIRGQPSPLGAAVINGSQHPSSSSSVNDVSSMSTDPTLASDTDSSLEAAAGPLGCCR

MKNK2 (human) = MKNK2 (human) (UniProt Q9HBH9)
ROCK2 (rat) = conditions: accession and sequence are those of the human protein
BRSK2 (human) = BRSK2 (human) (UniProt Q8IWQ3)
Chain of BRSK2 (human) (Q8IWQ3 whole entry, looked up): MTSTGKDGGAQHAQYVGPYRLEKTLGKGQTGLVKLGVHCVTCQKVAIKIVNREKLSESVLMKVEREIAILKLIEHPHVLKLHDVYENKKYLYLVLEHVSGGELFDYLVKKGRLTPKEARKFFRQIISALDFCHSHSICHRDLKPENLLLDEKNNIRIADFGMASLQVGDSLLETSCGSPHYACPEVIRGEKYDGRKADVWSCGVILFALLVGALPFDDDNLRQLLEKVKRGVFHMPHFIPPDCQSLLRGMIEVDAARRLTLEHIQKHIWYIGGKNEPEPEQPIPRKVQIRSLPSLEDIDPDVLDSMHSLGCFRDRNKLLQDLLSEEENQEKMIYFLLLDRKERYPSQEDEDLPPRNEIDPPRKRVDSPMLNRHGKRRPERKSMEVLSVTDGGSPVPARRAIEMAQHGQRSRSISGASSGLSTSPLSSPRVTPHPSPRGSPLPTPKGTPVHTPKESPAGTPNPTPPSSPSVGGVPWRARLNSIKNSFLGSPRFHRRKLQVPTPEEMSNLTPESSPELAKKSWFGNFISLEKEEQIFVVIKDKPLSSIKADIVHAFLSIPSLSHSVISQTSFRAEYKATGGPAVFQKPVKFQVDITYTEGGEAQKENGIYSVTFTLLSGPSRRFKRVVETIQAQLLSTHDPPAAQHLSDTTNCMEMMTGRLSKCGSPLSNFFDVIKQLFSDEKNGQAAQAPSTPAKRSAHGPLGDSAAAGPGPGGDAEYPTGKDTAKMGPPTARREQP

DYRK3 (human) = DYRK3 (human) (UniProt O43781)
PAK4 (human) = PAK4 (human) (UniProt O96013)
IKBKB (human) = IKBKB (human) (UniProt O14920)
MAPK11 (human) = MAPK11 (human) (UniProt Q15759)
MAPK14 (human) = MAPK14 (human) (UniProt Q16539)
[2] = system: RPS6KB1 (human), P23443 [T412E]
TBK1 (human) = TBK1 (human) (UniProt Q9UHD2)
Chain of TBK1 (human) (Q9UHD2 whole entry, looked up): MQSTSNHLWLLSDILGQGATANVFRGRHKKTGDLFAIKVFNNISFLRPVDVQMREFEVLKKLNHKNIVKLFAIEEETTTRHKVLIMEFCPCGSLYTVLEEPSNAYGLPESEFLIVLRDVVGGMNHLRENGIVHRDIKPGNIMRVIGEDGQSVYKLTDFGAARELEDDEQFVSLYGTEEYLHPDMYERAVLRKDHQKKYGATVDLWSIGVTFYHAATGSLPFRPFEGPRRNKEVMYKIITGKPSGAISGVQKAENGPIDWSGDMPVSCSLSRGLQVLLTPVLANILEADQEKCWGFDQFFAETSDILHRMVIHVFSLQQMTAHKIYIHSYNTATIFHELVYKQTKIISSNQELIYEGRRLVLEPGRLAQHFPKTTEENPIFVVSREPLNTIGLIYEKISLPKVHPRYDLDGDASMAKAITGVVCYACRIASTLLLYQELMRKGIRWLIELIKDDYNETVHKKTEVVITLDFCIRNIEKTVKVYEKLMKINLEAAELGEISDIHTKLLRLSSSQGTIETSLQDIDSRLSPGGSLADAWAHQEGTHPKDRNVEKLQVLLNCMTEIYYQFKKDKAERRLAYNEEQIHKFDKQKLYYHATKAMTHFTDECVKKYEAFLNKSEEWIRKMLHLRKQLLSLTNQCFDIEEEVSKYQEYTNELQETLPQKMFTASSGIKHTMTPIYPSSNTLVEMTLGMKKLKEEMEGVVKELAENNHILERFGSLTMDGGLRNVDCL

MAPK12 (human) = MAPK12 (human) (UniProt P53778)
RPS6KA1 KD1 KD2 (human) = RPS6KA1 KD1 KD2 (human) (UniProt Q15418)
[3] = system: AKT1 (human), P31749 [S473D]
IKBKE (human) = IKBKE (human) (UniProt Q14164)
MAPKAPK5 (human) = MAPKAPK5 (human) (UniProt Q8IW41)
IRAK4 (human) = IRAK4 (human) (UniProt Q9NWZ3)
Chain of IRAK4 (human) (Q9NWZ3 whole entry, looked up): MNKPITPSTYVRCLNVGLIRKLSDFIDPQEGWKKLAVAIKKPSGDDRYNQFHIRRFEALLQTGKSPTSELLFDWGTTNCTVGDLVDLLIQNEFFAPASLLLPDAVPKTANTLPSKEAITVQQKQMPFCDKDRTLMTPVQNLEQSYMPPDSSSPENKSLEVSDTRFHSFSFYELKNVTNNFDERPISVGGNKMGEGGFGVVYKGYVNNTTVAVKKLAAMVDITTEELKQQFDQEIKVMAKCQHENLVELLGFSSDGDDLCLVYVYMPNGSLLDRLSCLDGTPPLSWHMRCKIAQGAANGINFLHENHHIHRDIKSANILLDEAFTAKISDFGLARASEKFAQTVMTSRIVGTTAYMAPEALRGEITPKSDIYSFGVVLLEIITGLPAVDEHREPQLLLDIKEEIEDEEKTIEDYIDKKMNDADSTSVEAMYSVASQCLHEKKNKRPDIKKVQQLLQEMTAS

CSNK2A1 (human) = CSNK2A1 (human) (UniProt P68400)
CLK2 (human) = CLK2 (human) (UniProt P49760)
Chain of CLK2 (human) (P49760 whole entry, looked up): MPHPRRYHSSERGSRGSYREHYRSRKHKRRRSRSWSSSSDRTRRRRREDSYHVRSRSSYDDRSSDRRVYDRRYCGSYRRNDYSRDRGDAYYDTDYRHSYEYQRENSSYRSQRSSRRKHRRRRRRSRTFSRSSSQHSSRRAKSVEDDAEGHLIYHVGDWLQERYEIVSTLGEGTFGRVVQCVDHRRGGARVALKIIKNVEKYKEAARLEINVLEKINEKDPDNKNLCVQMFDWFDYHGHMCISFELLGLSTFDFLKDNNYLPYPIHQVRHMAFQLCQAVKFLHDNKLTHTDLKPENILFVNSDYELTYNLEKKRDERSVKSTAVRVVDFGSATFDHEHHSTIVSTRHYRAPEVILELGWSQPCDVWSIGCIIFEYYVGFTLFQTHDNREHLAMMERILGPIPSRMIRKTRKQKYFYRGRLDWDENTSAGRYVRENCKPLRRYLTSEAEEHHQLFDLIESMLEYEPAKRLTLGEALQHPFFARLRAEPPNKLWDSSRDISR

DAPK1 (human) = DAPK1 (human) (UniProt P53355)
MAP2K6 (human) = MAP2K6 (human) (UniProt P52564)
MAP3K11 (human) = MAP3K11 (human) (UniProt Q16584)
PIM2 (human) = PIM2 (human) (UniProt Q9P1W9)
EPHB3 (human) = EPHB3 (human) (UniProt P54753)
Chain of EPHB3 (human) (P54753 whole entry, looked up): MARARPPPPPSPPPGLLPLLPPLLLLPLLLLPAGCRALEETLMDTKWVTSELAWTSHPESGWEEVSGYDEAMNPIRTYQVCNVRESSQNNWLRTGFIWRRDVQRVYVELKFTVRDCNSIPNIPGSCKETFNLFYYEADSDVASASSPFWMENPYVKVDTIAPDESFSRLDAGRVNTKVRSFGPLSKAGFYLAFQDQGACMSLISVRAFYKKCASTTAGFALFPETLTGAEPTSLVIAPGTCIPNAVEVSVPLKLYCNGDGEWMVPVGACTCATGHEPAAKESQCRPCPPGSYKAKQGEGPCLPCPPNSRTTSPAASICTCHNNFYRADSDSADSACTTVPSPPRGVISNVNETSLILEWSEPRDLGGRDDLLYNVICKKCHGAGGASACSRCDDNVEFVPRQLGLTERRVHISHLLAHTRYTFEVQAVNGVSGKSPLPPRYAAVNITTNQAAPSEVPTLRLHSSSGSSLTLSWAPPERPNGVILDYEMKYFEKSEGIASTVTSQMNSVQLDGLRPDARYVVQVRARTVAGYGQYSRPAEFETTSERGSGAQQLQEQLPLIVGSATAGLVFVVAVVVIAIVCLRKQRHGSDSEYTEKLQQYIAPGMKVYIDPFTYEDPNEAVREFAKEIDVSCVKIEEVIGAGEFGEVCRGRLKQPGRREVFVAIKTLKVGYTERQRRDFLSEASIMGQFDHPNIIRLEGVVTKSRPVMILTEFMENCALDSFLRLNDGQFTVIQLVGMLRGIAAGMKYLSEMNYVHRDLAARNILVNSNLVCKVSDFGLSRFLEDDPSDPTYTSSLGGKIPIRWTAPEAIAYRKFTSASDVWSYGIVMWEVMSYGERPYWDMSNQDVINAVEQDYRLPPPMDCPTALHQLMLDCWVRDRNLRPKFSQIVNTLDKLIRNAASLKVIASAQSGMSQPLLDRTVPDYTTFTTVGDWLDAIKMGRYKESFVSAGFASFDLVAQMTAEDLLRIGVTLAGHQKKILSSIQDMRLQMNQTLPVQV

PIM3 (human) = PIM3 (human) (UniProt Q86V86)
PIM1 (human) = PIM1 (human) (UniProt P11309)
DYRK1A (human) = DYRK1A (human) (UniProt Q13627)

Chain of RPS6KA3 KD1 KD2 (human) (P51812 whole entry, looked up): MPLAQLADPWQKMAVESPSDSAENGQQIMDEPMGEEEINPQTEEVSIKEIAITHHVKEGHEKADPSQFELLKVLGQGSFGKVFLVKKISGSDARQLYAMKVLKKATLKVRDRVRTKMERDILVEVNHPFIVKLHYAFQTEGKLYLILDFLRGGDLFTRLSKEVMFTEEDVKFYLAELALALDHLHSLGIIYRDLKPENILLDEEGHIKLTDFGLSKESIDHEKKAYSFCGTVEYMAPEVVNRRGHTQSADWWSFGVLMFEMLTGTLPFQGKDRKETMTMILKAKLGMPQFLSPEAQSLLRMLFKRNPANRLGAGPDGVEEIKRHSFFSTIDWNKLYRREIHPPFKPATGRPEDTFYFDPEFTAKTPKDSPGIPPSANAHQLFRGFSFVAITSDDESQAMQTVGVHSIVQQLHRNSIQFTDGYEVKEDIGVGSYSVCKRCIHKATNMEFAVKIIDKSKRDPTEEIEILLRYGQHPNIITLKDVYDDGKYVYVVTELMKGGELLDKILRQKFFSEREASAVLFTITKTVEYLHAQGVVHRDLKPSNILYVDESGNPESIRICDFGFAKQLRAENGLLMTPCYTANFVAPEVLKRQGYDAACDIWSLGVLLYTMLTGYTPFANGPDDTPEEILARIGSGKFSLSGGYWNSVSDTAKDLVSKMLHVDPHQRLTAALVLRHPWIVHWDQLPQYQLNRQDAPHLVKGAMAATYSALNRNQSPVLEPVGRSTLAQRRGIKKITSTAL

`Cc1ccc(-c2ccc3c(ccc4sc5c(c43)NC[C@@H](C)NC5=O)n2)cn1` gave a residual activity (MAPK3 (human); compound 0.1 µM) of 111%, a residual activity (MAPK3 (human); compound 1.0 µM) of 108% and a residual activity (MAP3K7 TAB1 (human); compound 0.1 µM) of 113%. The residual activity (MAP3K7 TAB1 (human); compound 1.0 µM) was 109%, the residual activity (MAP3K7 TAB1 (human); compound 10.0 µM) was 70% and the residual activity (NTRK1 (human); compound 1.0 µM) was 100%. For the same compound, the residual activity (NTRK1 (human); compound 10.0 µM) was 83%, the residual activity ([1]; compound 0.1 µM) was 116% and the residual activity ([1]; compound 1.0 µM) was 112%. The residual activity ([1]; compound 10.0 µM) was 112%, the residual activity (MAPKAPK3 (human); compound 0.1 µM) was 114% and the residual activity (MAPKAPK3 (human); compound 1.0 µM) was 62%. It also gave a residual activity (MAPKAPK3 (human); compound 10.0 µM) of 30%, a residual activity (RPS6KA3 KD1 KD2 (human); compound 0.1 µM) of 104% and a residual activity (RPS6KA3 KD1 KD2 (human); compound 1.0 µM) of 79%. For the same compound, the residual activity (RPS6KA3 KD1 KD2 (human); compound 10.0 µM) was 50%, the residual activity (STK3 (human); compound 0.1 µM) was 131% and the residual activity (STK3 (human); compound 10.0 µM) was 100%. It also gave a residual activity (PLK1 (human); compound 0.1 µM) of 102%, a residual activity (PLK1 (human); compound 1.0 µM) of 114% and a residual activity (PLK1 (human); compound 10.0 µM) of 98%. It also gave a residual activity (MAPK8 (human); compound 0.1 µM) of 96%, a residual activity (MAPK8 (human); compound 1.0 µM) of 93% and a residual activity (MAPK8 (human); compound 10.0 µM) of 92%. The residual activity (MKNK2 (human); compound 0.1 µM) was 111%, the residual activity (MKNK2 (human); compound 10.0 µM) was 26% and the residual activity (ROCK2 (rat); compound 0.1 µM) was 112%. For the same compound, the residual activity (ROCK2 (rat); compound 1.0 µM) was 96%, the residual activity (ROCK2 (rat); compound 10.0 µM) was 95% and the residual activity (BRSK2 (human); compound 0.1 µM) was 77%. For the same compound, the residual activity (BRSK2 (human); compound 1.0 µM) was 32%, the residual activity (BRSK2 (human); compound 10.0 µM) was 8% and the residual activity (DYRK3 (human); compound 0.1 µM) was 111%. For the same compound, the residual activity (DYRK3 (human); compound 10.0 µM) was 40%, the residual activity (PAK4 (human); compound 0.1 µM) was 103% and the residual activity (PAK4 (human); compound 1.0 µM) was 88%. It also gave a residual activity (PAK4 (human); compound 10.0 µM) of 82%, a residual activity (IKBKB (human); compound 0.1 µM) of 115% and a residual activity (IKBKB (human); compound 1.0 µM) of 109%. For the same compound, the residual activity (IKBKB (human); compound 10.0 µM) was 101%, the residual activity (MAPK11 (human); compound 0.1 µM) was 118% and the residual activity (MAPK11 (human); compound 1.0 µM) was 126%. For the same compound, the residual activity (MAPK11 (human); compound 10.0 µM) was 117%, the residual activity (MAPK14 (human); compound 0.1 µM) was 94% and the residual activity (MAPK14 (human); compound 1.0 µM) was 94%. It also gave a residual activity (MAPK14 (human); compound 10.0 µM) of 83%, a residual activity ([2]; compound 0.1 µM) of 99% and a residual activity ([2]; compound 1.0 µM) of 95%. The residual activity ([2]; compound 10.0 µM) was 80%, the residual activity (TBK1 (human); compound 0.1 µM) was 110% and the residual activity (TBK1 (human); compound 1.0 µM) was 87%. It also gave a residual activity (TBK1 (human); compound 10.0 µM) of 96%, a residual activity (MAPK12 (human); compound 0.1 µM) of 108% and a residual activity (MAPK12 (human); compound 1.0 µM) of 115%. It also gave a residual activity (MAPK12 (human); compound 10.0 µM) of 97%, a residual activity (RPS6KA1 KD1 KD2 (human); compound 0.1 µM) of 106% and a residual activity (RPS6KA1 KD1 KD2 (human); compound 1.0 µM) of 100%. The residual activity (RPS6KA1 KD1 KD2 (human); compound 10.0 µM) was 76%, the residual activity ([3]; compound 0.1 µM) was 109% and the residual activity ([3]; compound 1.0 µM) was 97%. The residual activity ([3]; compound 10.0 µM) was 98%, the residual activity (IKBKE (human); compound 0.1 µM) was 98% and the residual activity (IKBKE (human); compound 1.0 µM) was 95%. It also gave a residual activity (IKBKE (human); compound 10.0 µM) of 44%, a residual activity (MAPKAPK5 (human); compound 1.0 µM) of 67% and a residual activity (MAPKAPK5 (human); compound 10.0 µM) of 24%. The residual activity (IRAK4 (human); compound 0.1 µM) was 94%, the residual activity (IRAK4 (human); compound 1.0 µM) was 62% and the residual activity (IRAK4 (human); compound 10.0 µM) was 24%. For the same compound, the residual activity (CSNK2A1 (human); compound 0.1 µM) was 100%, the residual activity (CSNK2A1 (human); compound 1.0 µM) was 97% and the residual activity (CSNK2A1 (human); compound 10.0 µM) was 93%. It also gave a residual activity (CLK2 (human); compound 0.1 µM) of 86%, a residual activity (CLK2 (human); compound 1.0 µM) of 43% and a residual activity (CLK2 (human); compound 10.0 µM) of 9%. The residual activity (DAPK1 (human); compound 0.1 µM) was 103%, the residual activity (DAPK1 (human); compound 1.0 µM) was 62% and the residual activity (DAPK1 (human); compound 10.0 µM) was 15%. For the same compound, the residual activity (MAP2K6 (human); compound 0.1 µM) was 95%, the residual activity (MAP2K6 (human); compound 10.0 µM) was 91% and the residual activity (MAP3K11 (human); compound 0.1 µM) was 114%. For the same compound, the residual activity (MAP3K11 (human); compound 1.0 µM) was 102%, the residual activity (MAP3K11 (human); compound 10.0 µM) was 73% and the residual activity (PIM2 (human); compound 0.1 µM) was 103%. For the same compound, the residual activity (PIM2 (human); compound 1.0 µM) was 103%, the residual activity (PIM2 (human); compound 10.0 µM) was 66% and the residual activity (EPHB3 (human); compound 0.1 µM) was 98%. The residual activity (EPHB3 (human); compound 1.0 µM) was 88%, the residual activity (EPHB3 (human); compound 10.0 µM) was 85% and the residual activity (PIM3 (human); compound 0.1 µM) was 55%. For the same compound, the residual activity (PIM3 (human); compound 1.0 µM) was 18%, the residual activity (PIM3 (human); compound 10.0 µM) was 3% and the residual activity (PIM1 (human); compound 0.1 µM) was 93%. It also gave a residual activity (PIM1 (human); compound 1.0 µM) of 58%, a residual activity (PIM1 (human); compound 10.0 µM) of 17% and a residual activity (DYRK1A (human); compound 0.1 µM) of 80%. The residual activity (DYRK1A (human); compound 1.0 µM) was 31% and the residual activity (DYRK1A (human); compound 10.0 µM) was 8%.
